The nature of data set [1]: Chemical compatibility of olanzapine and samidorphan L-malate, stability at 40° C./75% RH by HPLC. It is filed as physicochemical. The settings on record: for Percentage Related Compound B Impurity: 40° C./75% RH, ND: ≤LOD (0.02 wt %), LOQ: 0.05 wt %; for Percentage Total Impurities: 40° C./75 RH.
Description: Samples in 20 ml Wheaton scintillation vials were stored at 40° C./75% RH in open and closed vial configurations. Closed vials were vials closed with a urea cap and wrapped using parafilm under ambient conditions. The contents of the vials were tested at the start of the study and after 2, 6 and 12 weeks. At each time point samples were analysed by reversed phase HPLC (Waters ACQUITY UPLC H-Class System) with ACQUITY PDA Detector using a Waters ACQUITY UPLC CSH C18 Column, 3 mm×100 mm, and a gradient elution of acetate buffer pH 5.1 and 50/50 (v/v) acetonitrile/methanol.
The conditions of data set [2]: cited from earlier work.
Data set [3] can be described thus: Particle size distribution of samidorphan L-malate. In kind it is physicochemical. The text has this: The particle size distribution of the samidorphan or samidorphan pharmaceutically acceptable salt (e.g., L-malate) present in a disclosed tablet (e.g., as part of a first tablet layer) may be for example, a (D10) of between about 10 μm to about 80 μm, a (D50) of between about 40 μm to about 200 μm and a (D90) of between about 100 μm to about 300 μm, more preferably a D10 of between about 25 μm and about 50 μm; the D50 of between about 60 μm and about 100 μm. In some embodiments, D90 of the samidorphan (e.g., L-malate salt) is between about 120 μm and about 175 μm. […] Particle size (diameter) may be determined by conventional techniques such as dynamic light scattering. The ‘Dx’ nomenclature means that ‘x’ percent of the particles have a number average diameter (‘D’) less than or equal to the reported value when measured by static or dynamic light scattering techniques known to those skilled in the art. (e.g. D10=175 μm, means that 10% of particles have a number average diameter of less than or equal to 175 μm), a D50 (or Dv50) of less than 300 μm, means that 50% of the particle population has a diameter of less than or equal to 300 μm. The term “Dx” as used herein refers to a volume based size and is equivalent to the term “DvX” commonly used to characterize particle sizes. Since the particles of the present invention may be irregular in shape, an approximation of the particle size is made on the basis of the volume-based particle size, which specifies the diameter of the sphere that has same volume as a given particle. Unless otherwise specified, all particle sizes are specified in terms of volume-based measurements and are measured by laser light scattering/diffraction. Particle sizes are then determined based on Mie scattering theory.
For samidorphan L-malate, a recrystallization process was implemented providing particle size control during manufacturing to intentionally target a particle size distribution similar to the size of the drug product filler excipients. Unmilled and recrystallized grades of samidorphan L-malate were characterized for particle size distribution using 3 unique lots of each. The recrystallization was targeted to produce material with less fine particles thus increasing the D10. A slight increase in the D50 and decrease in the D90 adjusted the centerpoint of the distribution and decreased the overall span of the distribution. Overall the recrystallized materials had tighter distributions and reduced lot to lot variability, indicating better control. No change in the solid state form was observed between unmilled and recrystallized samidorphan L-malate as assessed by PXRD spectral comparison.

Turning to `Cc1cc2c(s1)Nc1ccccc1N=C2N1CCN(C)CC1` [Olanzapine, 2-methyl-4-(4-methyl-1-piperazinyl)-10H-thieno[2,3-b][1,5]benzodiazepine], the “Percentage Related Compound B Impurity” value is listed as 0.01 wt % in data set [1] (INITIAL) and “<LOQ” in data set [1] (OPEN vial, 2 WEEK). Further, the “Percentage Total Impurities” value is reported as 0.00% in data set [1] (CLOSED vial, 2 WEEK); 0.00% in data set [1] (CLOSED vial, 6 WEEK); 0.00% in data set [1] (CLOSED vial, 12 WEEK); 0.00% in data set [1] (INITIAL); 0.00% in data set [1] (OPEN vial, 2 WEEK); 0.00% in data set [1] (OPEN vial, 6 WEEK). In addition, the “Percentage Total Impurities” value in data set [1] (OPEN vial, 12 WEEK) is listed as 0.00%.
For the compound `NC(=O)c1ccc2c(c1O)[C@]13CCN(CC4CC4)[C@H](C2)[C@]1(O)CCC(=O)C3.O=C(O)C[C@H](O)C(=O)O` [Samidorphan L-malate, morphinan-3-carboxamide, 17-(cyclopropylmethyl)-4, 14-dihydroxy6-oxo-, (2S)-2-hydroxybutanedioate], the “Percentage Total Impurities” value in data set [1] (CLOSED vial, 2 WEEK) was 0.00%; in data set [1] (CLOSED vial, 6 WEEK) it was 0.00%; in data set [1] (CLOSED vial, 12 WEEK), 0.00%; in data set [1] (INITIAL), 0.00%; in data set [1] (OPEN vial, 2 WEEK) it was 0.00%; in data set [1] (OPEN vial, 6 WEEK) it was 0.00%. Further, the “Percentage Total Impurities” value in data set [1] (OPEN vial, 12 WEEK) is 0.00%. In addition, the “pKa (amine)” value in data set [2] is 8.3. Moreover, in data set [2], the “pKa (phenol)” value is reported as 10.1.
As to `NC(=O)c1ccc2c(c1O)[C@]13CCN(CC4CC4)[C@H](C2)[C@]1(O)CCC(=O)C3.O=C(O)C[C@H](O)C(=O)O` [Sample number 1], in data set [3] (listed as 1), the “Particle size D10” value stood at 8 μm, the “Particle size D50” value is reported as 37 μm and the “Particle size D90” value is reported as 223 μm.
With `NC(=O)c1ccc2c(c1O)[C@]13CCN(CC4CC4)[C@H](C2)[C@]1(O)CCC(=O)C3.O=C(O)C[C@H](O)C(=O)O` [Sample number 2], in data set [3] (listed as 2), the “Particle size D10” value is reported as 10 μm, the “Particle size D50” value is on record as 36 μm and the “Particle size D90” value turned out to be 231 μm.
With `NC(=O)c1ccc2c(c1O)[C@]13CCN(CC4CC4)[C@H](C2)[C@]1(O)CCC(=O)C3.O=C(O)C[C@H](O)C(=O)O` [Sample number 3], in data set [3] (listed as 3), the “Particle size D10” value is listed as 6 μm, the “Particle size D50” value stood at 28 μm and the “Particle size D90” value was found to be 243 μm.
As to `NC(=O)c1ccc2c(c1O)[C@]13CCN(CC4CC4)[C@H](C2)[C@]1(O)CCC(=O)C3.O=C(O)C[C@H](O)C(=O)O` [Sample number 4], in data set [3] (listed as 4), the “Particle size D10” value was 33 μm, the “Particle size D50” value was 73 μm and the “Particle size D90” value is listed as 130 μm.
`NC(=O)c1ccc2c(c1O)[C@]13CCN(CC4CC4)[C@H](C2)[C@]1(O)CCC(=O)C3.O=C(O)C[C@H](O)C(=O)O` [Sample number 5]: in data set [3] (listed as 5), the “Particle size D10” value turned out to be 46 μm, the “Particle size D50” value amounted to 90 μm and the “Particle size D90” value came to 160 μm.
Take `NC(=O)c1ccc2c(c1O)[C@]13CCN(CC4CC4)[C@H](C2)[C@]1(O)CCC(=O)C3.O=C(O)C[C@H](O)C(=O)O` [Sample number 6]: in data set [3] (listed as 6), the “Particle size D10” value stood at 42 μm, the “Particle size D50” value amounted to 90 μm and the “Particle size D90” value came out at 165 μm.

Source of the values: patent US12390474B2, “Immediate release multilayer tablet” (priority 2020, dated 2025).
